Our source for the IC50 values is patent US11878975B2, “Substituted indole compounds useful as TLR inhibitors” (BRISTOL-MYERS SQUIBB COMPANY, priority 2017, dated 2024).

What all share (format): cell-based
In one assay the target is T1, human TLR7 (Homo sapiens, UniProt Q9NYK1).
T1 construct: host or cells: HEK-Blue cells
T1 sequence (Q9NYK1 27-1049): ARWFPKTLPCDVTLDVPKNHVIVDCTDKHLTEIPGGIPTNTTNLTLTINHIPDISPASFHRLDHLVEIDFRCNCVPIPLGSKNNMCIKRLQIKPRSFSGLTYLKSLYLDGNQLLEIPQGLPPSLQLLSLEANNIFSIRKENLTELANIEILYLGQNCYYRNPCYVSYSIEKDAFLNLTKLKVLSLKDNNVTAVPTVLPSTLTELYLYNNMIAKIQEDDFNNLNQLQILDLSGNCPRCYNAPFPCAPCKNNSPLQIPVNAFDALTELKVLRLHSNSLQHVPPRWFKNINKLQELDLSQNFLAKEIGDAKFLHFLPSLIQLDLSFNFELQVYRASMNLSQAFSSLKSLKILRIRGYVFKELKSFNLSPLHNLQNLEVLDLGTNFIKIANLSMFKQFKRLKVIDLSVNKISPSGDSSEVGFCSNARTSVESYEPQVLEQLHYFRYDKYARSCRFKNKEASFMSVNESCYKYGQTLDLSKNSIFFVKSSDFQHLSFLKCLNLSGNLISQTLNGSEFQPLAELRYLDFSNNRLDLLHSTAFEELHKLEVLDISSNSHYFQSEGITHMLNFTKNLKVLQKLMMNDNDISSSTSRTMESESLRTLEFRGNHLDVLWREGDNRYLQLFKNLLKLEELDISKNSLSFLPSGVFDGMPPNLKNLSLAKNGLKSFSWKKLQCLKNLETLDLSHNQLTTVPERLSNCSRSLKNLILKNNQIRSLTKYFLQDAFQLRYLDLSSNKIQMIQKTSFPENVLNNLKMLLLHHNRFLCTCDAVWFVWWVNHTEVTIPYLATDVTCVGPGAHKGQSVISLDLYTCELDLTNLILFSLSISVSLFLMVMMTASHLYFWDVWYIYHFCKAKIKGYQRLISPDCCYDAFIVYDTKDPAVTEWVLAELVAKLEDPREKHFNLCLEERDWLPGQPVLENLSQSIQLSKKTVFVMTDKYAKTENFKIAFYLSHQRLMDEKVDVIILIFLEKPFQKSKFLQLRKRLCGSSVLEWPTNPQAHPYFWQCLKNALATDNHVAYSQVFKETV
Nature of the assay: TLR7 inhibition reporter assay (HEK-Blue cells, SEAP reporter, gardiquimod stimulation). The settings on record: HEK-Blue cells overexpressing human TLR7, SEAP reporter, gardiquimod 7.5 μM. Put shortly:
(§1)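 Dose range 0.05 nM–50 μM; 30 min preincubation, RT. Agonists: TLR7 gardiquimod 7.5 μM, TLR8 R848 15.9 μM, TLR9 ODN2006 5 nM. 22 h, 37 °C, 5% CO2. SEAP (IFN-β minimal promoter with NF-κB/AP-1 sites) via colorimetric detection medium; % inhibition vs agonist+DMSO and reference-inhibitor wells.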
Background: Reporter assays use an easily measured gene product as a stand-in for the process of interest.

For a further assay, the target named is T2, human TLR8 (Homo sapiens, UniProt Q9NR97).
T2 construct: host or cells: HEK-Blue cells
T2 sequence (Q9NR97 27-1041): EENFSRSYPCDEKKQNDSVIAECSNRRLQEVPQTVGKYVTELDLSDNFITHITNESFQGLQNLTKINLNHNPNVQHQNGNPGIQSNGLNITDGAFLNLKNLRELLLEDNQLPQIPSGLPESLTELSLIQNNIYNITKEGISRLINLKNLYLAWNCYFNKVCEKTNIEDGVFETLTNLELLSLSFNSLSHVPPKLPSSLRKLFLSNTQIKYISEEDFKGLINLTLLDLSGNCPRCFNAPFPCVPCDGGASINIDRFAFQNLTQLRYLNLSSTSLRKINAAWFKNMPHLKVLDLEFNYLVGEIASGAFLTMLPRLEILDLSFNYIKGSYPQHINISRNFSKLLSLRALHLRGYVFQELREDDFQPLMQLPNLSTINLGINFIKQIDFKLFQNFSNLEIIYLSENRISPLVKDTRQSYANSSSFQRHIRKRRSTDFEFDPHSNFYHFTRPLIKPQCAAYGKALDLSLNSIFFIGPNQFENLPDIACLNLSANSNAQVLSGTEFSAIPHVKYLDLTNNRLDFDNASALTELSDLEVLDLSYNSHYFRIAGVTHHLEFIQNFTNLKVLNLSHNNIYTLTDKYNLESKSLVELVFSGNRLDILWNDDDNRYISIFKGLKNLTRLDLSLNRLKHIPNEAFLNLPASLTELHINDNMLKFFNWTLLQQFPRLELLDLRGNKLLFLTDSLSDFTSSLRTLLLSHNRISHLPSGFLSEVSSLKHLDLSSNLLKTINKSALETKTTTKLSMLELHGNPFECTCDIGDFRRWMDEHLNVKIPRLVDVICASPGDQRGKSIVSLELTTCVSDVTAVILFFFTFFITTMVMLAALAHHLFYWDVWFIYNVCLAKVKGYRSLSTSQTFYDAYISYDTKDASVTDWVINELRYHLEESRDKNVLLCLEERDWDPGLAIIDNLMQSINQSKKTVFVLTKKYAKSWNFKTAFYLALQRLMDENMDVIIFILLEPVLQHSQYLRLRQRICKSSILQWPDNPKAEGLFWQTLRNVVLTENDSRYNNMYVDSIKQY
Put plainly: TLR8 inhibition reporter assay (HEK-Blue cells, SEAP reporter, R848 stimulation). The settings on record: HEK-Blue cells overexpressing human TLR8, SEAP reporter, R848 15.9 μM. Put shortly: as §1

The next assay concerns the target T3, human TLR9 (Homo sapiens, UniProt Q9NR96).
T3 construct: host or cells: HEK-Blue cells
T3 sequence (Q9NR96 26-1032): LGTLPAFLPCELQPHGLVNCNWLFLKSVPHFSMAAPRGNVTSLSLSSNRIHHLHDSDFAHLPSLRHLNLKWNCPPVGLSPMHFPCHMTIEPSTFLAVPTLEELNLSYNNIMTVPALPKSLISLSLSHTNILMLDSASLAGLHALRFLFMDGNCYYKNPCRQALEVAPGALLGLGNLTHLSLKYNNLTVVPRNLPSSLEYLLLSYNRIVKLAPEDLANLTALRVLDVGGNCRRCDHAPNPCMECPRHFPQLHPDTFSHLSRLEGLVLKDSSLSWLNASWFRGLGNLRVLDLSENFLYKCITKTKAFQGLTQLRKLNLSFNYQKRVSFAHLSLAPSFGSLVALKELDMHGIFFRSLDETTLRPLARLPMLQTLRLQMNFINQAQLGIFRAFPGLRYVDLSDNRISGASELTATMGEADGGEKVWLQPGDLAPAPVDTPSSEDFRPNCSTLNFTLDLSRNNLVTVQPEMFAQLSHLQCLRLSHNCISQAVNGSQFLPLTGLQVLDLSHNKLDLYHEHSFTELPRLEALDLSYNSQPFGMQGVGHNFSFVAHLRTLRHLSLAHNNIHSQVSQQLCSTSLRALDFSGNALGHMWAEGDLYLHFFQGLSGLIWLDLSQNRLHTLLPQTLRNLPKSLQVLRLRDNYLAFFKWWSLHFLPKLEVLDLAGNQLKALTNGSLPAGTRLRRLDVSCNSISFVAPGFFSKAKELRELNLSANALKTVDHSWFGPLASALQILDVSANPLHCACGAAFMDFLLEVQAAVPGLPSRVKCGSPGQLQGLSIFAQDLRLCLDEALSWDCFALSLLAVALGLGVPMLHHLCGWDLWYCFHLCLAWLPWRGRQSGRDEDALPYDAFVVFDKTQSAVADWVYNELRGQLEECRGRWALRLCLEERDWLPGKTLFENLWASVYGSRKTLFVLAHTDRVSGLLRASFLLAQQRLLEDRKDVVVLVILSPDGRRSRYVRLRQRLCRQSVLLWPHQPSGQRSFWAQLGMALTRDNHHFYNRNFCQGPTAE
Nature of the assay: TLR9 inhibition reporter assay (HEK-Blue cells, SEAP reporter, ODN2006 stimulation). Conditions: HEK-Blue cells overexpressing human TLR9, SEAP reporter, ODN2006 5 nM. Put shortly:
as §1

By pIC50 is commonly meant the negative decadic logarithm of the IC50, by convention in mol/L. Read a high pIC50 as a small IC50.

Each structure is given as a SMILES string. pIC50: −log10 of the molar value.

For the compound `COc1cc(-c2[nH]c3ccc(C4CCCN(C(=O)CN(C)C)C4)cc3c2C(C)C)cn2ncnc12` (stereo not drawn) [Example 191], the negative logarithm of the IC50 (pIC50) on human TLR7 was 9.47; against human TLR8, 8.59; against human TLR9, 5.73.

As for `COc1cc(-c2[nH]c3ccc(C4CCCN(C(=O)CN(C)C)C4)cc3c2C(C)C)cn2ncnc12` (stereo not drawn) [Example 192], the pIC50 on human TLR7 is 9.31; against human TLR8, 8.23; against human TLR9, 5.55.

For the compound `Cc1c(-c2[nH]c3ccc(C4CCCN(C(=O)CN(C)C)C4)cc3c2C(C)C)cn2ncnc2c1C` (stereo not drawn) [Example 193], the pIC50 against human TLR7 is 9.00; on human TLR8 it was 8.54; at human TLR9, 5.19.

With `COc1cc(-c2[nH]c3ccc(C4CCCN(C(=O)C5CCN(C)CC5)C4)cc3c2C(C)C)cn2ncnc12` (stereo not drawn) [Example 194], the pIC50 on human TLR7 was 8.22; on human TLR8 it was 7.64; against human TLR9 it was 4.92.

In the case of `COc1ccc(-c2[nH]c3ccc(C4CCCN(C(=O)CN(C)C)C4)cc3c2C(C)C)cc1OC` (stereo not drawn) [Example 195], the pIC50 is 7.70 at human TLR7, 7.37 at human TLR8 and 5.66 at human TLR9.

Consider `Cc1cc(-c2[nH]c3ccc(C4CCCN(C(=O)CN5CCOCC5)C4)cc3c2C(C)C)cc(C)n1` (stereo not drawn) [Example 196], for which the pIC50 is 7.80 against human TLR7, 7.08 against human TLR8 and 4.50 at human TLR9.

For `Cc1cc(-c2[nH]c3ccc(C4CCCN(C(=O)CN5CCOCC5)C4)cc3c2C(C)C)cc(C)n1` (stereo not drawn) [Example 197], the pIC50 is 8.70 on human TLR7, 7.80 on human TLR8 and 4.35 against human TLR9.

With `Cc1cc(-c2[nH]c3ccc(C4CCCN(C(=O)C5C(C)(C)C5(C)C)C4)cc3c2C(C)C)cc(C)n1` (stereo not drawn) [Example 198], the pIC50 on human TLR7 was 6.42; against human TLR8, 5.96; against human TLR9, 4.62.

As to `Cc1cc(-c2[nH]c3ccc(C4CCCN(C(=O)C5(C)CC5)C4)cc3c2C(C)C)cc(C)n1` (stereo not drawn) [Example 199], the pIC50 against human TLR7 was 7.05; on human TLR8, 6.37; against human TLR9, 4.43.

As for `Cc1cc(-c2[nH]c3ccc(C4CCCN(C(=O)C5C(C)(C)C5(C)C)C4)cc3c2C(C)C)cc(C)n1` (stereo not drawn) [Example 200], the pIC50 against human TLR7 is 7.40; at human TLR8, 6.61; on human TLR9 it was 4.58.

As to `Cc1cc(-c2[nH]c3ccc(C4CCCN(C(=O)C5(N)CC5)C4)cc3c2C(C)C)cc(C)n1` (stereo not drawn) [Example 201], the pIC50 at human TLR7 is 8.15; against human TLR8, 6.96; at human TLR9, 4.72.

With `Cc1cc(-c2[nH]c3ccc(C4CCCN(C(=O)C5(C)CC5)C4)cc3c2C(C)C)cc(C)n1` (stereo not drawn) [Example 202], the pIC50 was 8.40 against human TLR7, 7.46 on human TLR8 and 4.91 at human TLR9.

In the case of `Cc1cc(-c2[nH]c3ccc(C4CCCN(C(=O)C5(C)COC5)C4)cc3c2C(C)C)cc(C)n1` (stereo not drawn) [Example 203], the pIC50 is 7.25 against human TLR7, 6.46 against human TLR8 and 4.36 on human TLR9.

Regarding `Cc1cc(-c2[nH]c3ccc(C4CCCN(C(=O)C5(C)COC5)C4)cc3c2C(C)C)cc(C)n1` (stereo not drawn) [Example 204], the pIC50 against human TLR7 was 8.40; at human TLR8, 7.26; on human TLR9 it was below 4.30.

As to `COCC(=O)N1CCCC(c2ccc3[nH]c(-c4cc(C)nc(C)c4)c(C(C)C)c3c2)C1` (stereo not drawn) [Example 205], the negative logarithm of the IC50 (pIC50) against human TLR7 was 6.92; on human TLR8, 6.40; against human TLR9, below 4.30.

Take `COCCC(=O)N1CCCC(c2ccc3[nH]c(-c4cc(C)nc(C)c4)c(C(C)C)c3c2)C1` (stereo not drawn) [Example 207]: the pIC50 against human TLR7 is 7.62; on human TLR8, 7.01; on human TLR9, 4.36.

`COCCC(=O)N1CCCC(c2ccc3[nH]c(-c4cc(C)nc(C)c4)c(C(C)C)c3c2)C1` (stereo not drawn) [Example 208]: the values for the pIC50 against human TLR7, against human TLR8 and against human TLR9 were 8.22, 7.37 and below 4.30, respectively.

For the compound `CNCC(=O)N1CCCC(c2ccc3[nH]c(-c4cc(OC)c5ncnn5c4)c(C(C)C)c3c2)C1` (stereo not drawn) [Example 211, 1-(3-(3-isopropyl-2-(8-methoxy-[1,2,4]triazolo[1,5-a]pyridin-6-yl)-1H-indol-5-yl)piperidin-1-yl)-2-(methylamino)ethan-1-one], the figures for the pIC50 against human TLR7, on human TLR8 and at human TLR9 were 8.52, 7.96 and 5.10, respectively.

With `CNCC(=O)N1CCCC(c2ccc3[nH]c(-c4cc(OC)c5ncnn5c4)c(C(C)C)c3c2)C1` (stereo not drawn) [Example 212], the pIC50 is 8.52 against human TLR7, 7.89 on human TLR8 and 5.07 at human TLR9.

In the case of `CNCC(=O)N1CCCC(c2ccc3[nH]c(-c4cn5ncnc5c(C)c4C)c(C(C)C)c3c2)C1` (stereo not drawn) [Example 213], the pIC50 is 8.52 on human TLR7, 8.30 on human TLR8 and 5.19 against human TLR9.

As for `CNCC(=O)N1CCCC(c2ccc3[nH]c(-c4cn5ncnc5c(C)c4C)c(C(C)C)c3c2)C1` (stereo not drawn) [Example 214], the pIC50 against human TLR7 was 8.70; on human TLR8, 8.54; on human TLR9, 5.23.
